CSCC1CN(/N=C/c2ccc([N+](=O)[O-])o2)C(=O)O1 (configuration not stated)
solubility (mole fraction)
Conditions	293.15 K	298.15 K	303.15 K	308.15 K	313.15 K	318.15 K	323.15 K	328.15 K	333.15 K
in DMF	0.012	0.015	0.0186	0.0229	0.0279	0.0338	0.0405	0.0483	0.0571
in DMSO	0.0172	0.021	0.0255	0.0307	0.0367	0.0435	0.0511	0.0596	0.069
in THF	0.000618	0.000801	0.00103	0.00131	0.00166	0.00209	0.0026	0.00322	0.00397
in acetic acid	0.000206	0.000275	0.000364	0.000479	0.000624	0.000808	0.00104	0.00133	0.00168
in acetone	0.00109	0.0014	0.00178	0.00225	0.00281	0.0035	0.00432	0.0053	–
in acetonitrile	0.00235	0.00296	0.00369	0.00457	0.00562	0.00687	0.00835	0.0101	0.0121
in dichloromethane	0.00151	0.00192	0.00242	0.00303	–	–	–	–	–
in ethanol	1.98e-05	2.7e-05	3.65e-05	4.89e-05	6.49e-05	8.54e-05	0.000111	0.000144	0.000185
in ethyl acetate	0.000224	0.000297	0.000389	0.000505	0.000651	0.000832	0.00106	0.00133	0.00167
in isopropanol	1.45e-05	2e-05	2.73e-05	3.69e-05	4.94e-05	6.56e-05	8.63e-05	0.000113	0.000146
in methanol	3.84e-05	5.31e-05	7.26e-05	9.85e-05	0.000132	0.000177	0.000234	0.000308	0.000403
in water	1.53e-05	2.06e-05	2.75e-05	3.63e-05	4.74e-05	6.16e-05	7.93e-05	0.000101	0.000129

— BigSolDB 2.1
